In patent US20120029187A1, “HALOALKYLSULFONANILIDE DERIVATIVE” (Nissan Chemical Industries, Ltd., priority 2009, published 2012):

Columns and labels:
Type in all cases: in vivo
large crabgrass [1] = test: Test Example 4: herbicidal effect in foliage treatment; conditions: dose 3.2 g/a, three weeks after application
Method in brief: (§1)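 Weeds and crops sown in sterilized diluvial soil under ~1.5 cm cover and grown in greenhouse at 25 to 30° C. At 14 days, water-diluted emulsifiable concentrate sprayed onto foliage at set doses (g/a); herbicidal effect scored on a rating scale three weeks after application.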

common lambsquater [2] = test: as above; conditions: dose 3.2 g/a, three weeks after application
Method in brief: as §1

beadstraw [3] = test: as above; conditions: dose 3.2 g/a, three weeks after application
Method in brief: as §1

barnyardgrass [4] = test: as above; conditions: dose 3.2 g/a, three weeks after application
Method in brief: as §1

redroot pigweed [5] = test: as above; conditions: dose 3.2 g/a, three weeks after application
Method in brief: as §1

wild oat [6] = test: as above; conditions: dose 3.2 g/a, three weeks after application
Method in brief: as §1

common chickweed [7] = test: as above; conditions: dose 3.2 g/a, three weeks after application
Method in brief: as §1

posumbu knotweed [8] = test: as above; conditions: dose 3.2 g/a, three weeks after application
Method in brief: as §1

Italian ryegrass [9] = test: as above; conditions: dose 3.2 g/a, three weeks after application
Method in brief: as §1

velvetleaf [10] = test: as above; conditions: dose 3.2 g/a, three weeks after application
Method in brief: as §1

giant foxtail [11] = test: as above; conditions: dose 3.2 g/a, three weeks after application
Method in brief: as §1

common ragweed [12] = test: as above; conditions: dose 3.2 g/a, three weeks after application
Method in brief: as §1

water foxtail [13] = test: as above; conditions: dose 3.2 g/a, three weeks after application
Method in brief: as §1

large crabgrass [14] = test: Test Example 3: herbicidal effects in soil treatment; conditions: dose 3.2 g/a
Method in brief: (§2)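 Seeds were sown in sterilized diluvial soil and covered with about 1.5 cm of soil. Compounds, formulated as emulsifiable concentrates and diluted with water, were sprayed evenly over the soil surface at set doses in g/a. Herbicidal effect was scored on a rating scale three weeks later.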

common lambsquater [15] = test: as above; conditions: dose 3.2 g/a
Method in brief: as §2

beadstraw [16] = test: as above; conditions: dose 3.2 g/a
Method in brief: as §2

barnyardgrass [17] = test: as above; conditions: dose 3.2 g/a
Method in brief: as §2

redroot pigweed [18] = test: as above; conditions: dose 3.2 g/a
Method in brief: as §2

wild oat [19] = test: as above; conditions: dose 3.2 g/a
Method in brief: as §2

common chickweed [20] = test: as above; conditions: dose 3.2 g/a
Method in brief: as §2

posumbu knotweed [21] = test: as above; conditions: dose 3.2 g/a
Method in brief: as §2

Italian ryegrass [22] = test: as above; conditions: dose 3.2 g/a
Method in brief: as §2

velvetleaf [23] = test: as above; conditions: dose 3.2 g/a
Method in brief: as §2

giant foxtail [24] = test: as above; conditions: dose 3.2 g/a
Method in brief: as §2

common ragweed [25] = test: as above; conditions: dose 3.2 g/a
Method in brief: as §2

water foxtail [26] = test: as above; conditions: dose 3.2 g/a
Method in brief: as §2

barnyardgrass [27] = test: Test Example 1: herbicidal effects in preemergence treatment under submerged conditions; conditions: dose 2.52 g/a
Method in brief: (§3)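 Score 0–5 by mortality (5: ≥90%; 0: <5%), read 3 weeks post-application. Paddy-type cups: alluvial soil under 4 cm water, weeds seeded plus transplanted 2.5-leaf rice; diluted EC dosed onto water surface same day as sowing, g/a basis; greenhouse 25 to 30° C.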

ducksalad [28] = test: as above; conditions: dose 2.52 g/a
Method in brief: as §3

bulrush [29] = test: as above; conditions: dose 2.52 g/a
Method in brief: as §3

barnyardgrass [30] = test: Test Example 2: herbicidal effects during the vegetation period under submerged conditions; conditions: treatment during the vegetation period under submerged conditions; dose 2.52 g/a
Method in brief: (§4)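 Barnyardgrass, bulrush and ducksalad were co-sown in alluvial soil flooded to 4 cm and grown in a greenhouse at 25 to 30° C. At the 1- or 2-leaf stage, water-diluted emulsifiable concentrates went onto the water surface at set doses (g/a). Herbicidal effect was scored three weeks later on a graded scale.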

ducksalad [31] = test: as above; conditions: treatment during the vegetation period under submerged conditions; dose 2.52 g/a
Method in brief: as §4

bulrush [32] = test: as above; conditions: treatment during the vegetation period under submerged conditions; dose 2.52 g/a
Method in brief: as §4

transplanted rice = test: Test Example 1: preemergence treatment under submerged conditions, effect on crop; conditions: dose 2.52 g/a
Method in brief: as §3

Row | Structure (SMILES) | D: large crabgrass, herbicidal effect (large crabgrass [1]) | L: common lambsquater, herbicidal effect (common lambsquater [2]) | O: beadstraw, herbicidal effect (beadstraw [3]) | A: barnyardgrass, herbicidal effect (barnyardgrass [4]) | K: redroot pigweed, herbicidal effect (redroot pigweed [5]) | F: wild oat, herbicidal effect (wild oat [6]) | N: common chickweed, herbicidal effect (common chickweed [7]) | M: posumbu knotweed, herbicidal effect (posumbu knotweed [8]) | H: Italian ryegrass, herbicidal effect (Italian ryegrass [9]) | I: velvetleaf, herbicidal effect (velvetleaf [10]) | E: giant foxtail, herbicidal effect (giant foxtail [11]) | J: common ragweed, herbicidal effect (common ragweed [12]) | G: water foxtail, herbicidal effect (water foxtail [13]) | D: large crabgrass, herbicidal effect (evaluation scale 0-5) (large crabgrass [14]) | L: common lambsquater, herbicidal effect (evaluation scale 0-5) (common lambsquater [15]) | O: beadstraw, herbicidal effect (evaluation scale 0-5) (beadstraw [16]) | A: barnyardgrass, herbicidal effect (evaluation scale 0-5) (barnyardgrass [17]) | K: redroot pigweed, herbicidal effect (evaluation scale 0-5) (redroot pigweed [18]) | F: wild oat, herbicidal effect (evaluation scale 0-5) (wild oat [19]) | N: common chickweed, herbicidal effect (evaluation scale 0-5) (common chickweed [20]) | also measured
1 | CCOC(=O)N(c1ccccc1CN1COC(C)(C)C(F)C1=O)S(=O)(=O)C(F)(F)F (stereo not drawn) [II-34] | 4 (mortality of at least 70% and less than 90%) | 3 (mortality of at least 40% and less than 70%) | 4 (mortality of at least 70% and less than 90%) | 5 (mortality of 90% or above (nearly complete death)) | 2 (mortality of at least 20% and less than 40%) | 0 (mortality of less than 5% (almost ineffective)) | 4 (mortality of at least 70% and less than 90%) | 4 (mortality of at least 70% and less than 90%) | 4 (mortality of at least 70% and less than 90%) | 3 (mortality of at least 40% and less than 70%) | 3 (mortality of at least 40% and less than 70%) | 4 (mortality of at least 70% and less than 90%) | 5 (mortality of 90% or above (nearly complete death)) | 5 (mortality of 90% or above (nearly complete death)) | 3 (mortality of at least 40% and less than 70%) | 4 (mortality of at least 70% and less than 90%) | 5 (mortality of 90% or above (nearly complete death)) | 3 (mortality of at least 40% and less than 70%) | 0 (mortality of less than 5% (almost ineffective)) | 3 (mortality of at least 40% and less than 70%) | M: posumbu knotweed, herbicidal effect (evaluation scale 0-5) (posumbu knotweed [21]): 5 (mortality of 90% or above (nearly complete death)); H: Italian ryegrass, herbicidal effect (evaluation scale 0-5) (Italian ryegrass [22]): 2 (mortality of at least 20% and less than 40%); I: velvetleaf, herbicidal effect (evaluation scale 0-5) (velvetleaf [23]): 3 (mortality of at least 40% and less than 70%); E: giant foxtail, herbicidal effect (evaluation scale 0-5) (giant foxtail [24]): 4 (mortality of at least 70% and less than 90%); J: common ragweed, herbicidal effect (evaluation scale 0-5) (common ragweed [25]): 4 (mortality of at least 70% and less than 90%); G: water foxtail, herbicidal effect (evaluation scale 0-5) (water foxtail [26]): 5 (mortality of 90% or above (nearly complete death)); A: barnyardgrass, herbicidal effect (evaluation scale 0-5) (barnyardgrass [27]): 5 (mortality of 90% or above (nearly complete death)); C: ducksalad, herbicidal effect (evaluation scale 0-5) (ducksalad [28]): 5 (mortality of 90% or above (nearly complete death)); B: bulrush, herbicidal effect (evaluation scale 0-5) (bulrush [29]): 5 (mortality of 90% or above (nearly complete death)); A: barnyardgrass, herbicidal effect (evaluation scale 0-5) (barnyardgrass [30]): 5 (mortality of 90% or above (nearly complete death)); C: ducksalad, herbicidal effect (evaluation scale 0-5) (ducksalad [31]): 5 (mortality of 90% or above (nearly complete death)); B: bulrush, herbicidal effect (evaluation scale 0-5) (bulrush [32]): 5 (mortality of 90% or above (nearly complete death)); a: transplanted rice, effect on crop (evaluation scale 0-5) (transplanted rice): 0 (mortality of less than 5% (almost ineffective))
2 | CC(C)COC(=O)N(c1ccccc1CN1COC(C)(C)C(F)C1=O)S(=O)(=O)C(F)(F)F (stereo not drawn) [II-36] | 4 (mortality of at least 70% and less than 90%) | 1 (mortality of at least 5% and less than 20%) | 3 (mortality of at least 40% and less than 70%) | 5 (mortality of 90% or above (nearly complete death)) | 0 (mortality of less than 5% (almost ineffective)) | 0 (mortality of less than 5% (almost ineffective)) | 3 (mortality of at least 40% and less than 70%) | 2 (mortality of at least 20% and less than 40%) | 2 (mortality of at least 20% and less than 40%) | 2 (mortality of at least 20% and less than 40%) | 3 (mortality of at least 40% and less than 70%) | 3 (mortality of at least 40% and less than 70%) | 4 (mortality of at least 70% and less than 90%) | 4 (mortality of at least 70% and less than 90%) | 0 (mortality of less than 5% (almost ineffective)) | 4 (mortality of at least 70% and less than 90%) | 5 (mortality of 90% or above (nearly complete death)) | 0 (mortality of less than 5% (almost ineffective)) | 0 (mortality of less than 5% (almost ineffective)) | 4 (mortality of at least 70% and less than 90%) | M: posumbu knotweed, herbicidal effect (evaluation scale 0-5) (posumbu knotweed [21]): 4 (mortality of at least 70% and less than 90%); H: Italian ryegrass, herbicidal effect (evaluation scale 0-5) (Italian ryegrass [22]): 0 (mortality of less than 5% (almost ineffective)); I: velvetleaf, herbicidal effect (evaluation scale 0-5) (velvetleaf [23]): 3 (mortality of at least 40% and less than 70%); E: giant foxtail, herbicidal effect (evaluation scale 0-5) (giant foxtail [24]): 3 (mortality of at least 40% and less than 70%); J: common ragweed, herbicidal effect (evaluation scale 0-5) (common ragweed [25]): 4 (mortality of at least 70% and less than 90%); G: water foxtail, herbicidal effect (evaluation scale 0-5) (water foxtail [26]): 5 (mortality of 90% or above (nearly complete death)); A: barnyardgrass, herbicidal effect (evaluation scale 0-5) (barnyardgrass [27]): 5 (mortality of 90% or above (nearly complete death)); C: ducksalad, herbicidal effect (evaluation scale 0-5) (ducksalad [28]): 5 (mortality of 90% or above (nearly complete death)); B: bulrush, herbicidal effect (evaluation scale 0-5) (bulrush [29]): 5 (mortality of 90% or above (nearly complete death)); A: barnyardgrass, herbicidal effect (evaluation scale 0-5) (barnyardgrass [30]): 5 (mortality of 90% or above (nearly complete death)); C: ducksalad, herbicidal effect (evaluation scale 0-5) (ducksalad [31]): 5 (mortality of 90% or above (nearly complete death)); B: bulrush, herbicidal effect (evaluation scale 0-5) (bulrush [32]): 5 (mortality of 90% or above (nearly complete death)); a: transplanted rice, effect on crop (evaluation scale 0-5) (transplanted rice): 0 (mortality of less than 5% (almost ineffective))
